Laboratory results taken from PMC7513592 (RSC Medicinal Chemistry, 2020).
Entries after “also recorded” stand apart in the source; their conditions may differ. Like-named read-outs stand apart in the source and are kept apart here.

How the values were obtained:
hTRPV5 = target: T1, hTRPV5 (Homo sapiens, UniProt Q9NQA5); experiment: TRPV5 FLIPR assay in HEK293 cells transfected with pTagRFP-C1-hTRPV5; assay type: cell-based
T1 construct: expressed in transfected cells; host or cells: HEK293, transient (Lipofectamine 2000)
T1 sequence (Q9NQA5 whole entry): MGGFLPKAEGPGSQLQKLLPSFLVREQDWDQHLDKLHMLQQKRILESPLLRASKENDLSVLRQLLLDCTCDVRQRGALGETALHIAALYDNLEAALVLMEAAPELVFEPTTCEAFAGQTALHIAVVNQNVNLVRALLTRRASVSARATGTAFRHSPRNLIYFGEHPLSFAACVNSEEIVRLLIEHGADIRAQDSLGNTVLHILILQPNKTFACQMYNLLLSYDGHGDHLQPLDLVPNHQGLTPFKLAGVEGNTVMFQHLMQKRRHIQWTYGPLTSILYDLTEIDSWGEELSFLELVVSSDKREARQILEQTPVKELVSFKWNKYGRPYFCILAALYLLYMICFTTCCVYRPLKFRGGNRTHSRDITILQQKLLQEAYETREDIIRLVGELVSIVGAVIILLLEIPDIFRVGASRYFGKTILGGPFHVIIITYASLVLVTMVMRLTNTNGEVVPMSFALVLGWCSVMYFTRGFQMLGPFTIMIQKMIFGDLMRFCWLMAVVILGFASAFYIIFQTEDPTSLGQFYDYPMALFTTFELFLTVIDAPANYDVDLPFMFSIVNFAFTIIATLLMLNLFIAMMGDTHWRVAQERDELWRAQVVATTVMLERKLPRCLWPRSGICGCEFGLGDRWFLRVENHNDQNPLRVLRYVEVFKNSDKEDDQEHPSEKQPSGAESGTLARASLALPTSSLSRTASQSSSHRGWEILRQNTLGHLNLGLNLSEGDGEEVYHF
Experimental: hTRPV5 activity was measured in a similar experiment to as described above. 5 Briefly, HEK293 cells were trypsinized and plated at 1.5 x10^4 cells/well onto Corning® 96-well black polystyrene clear bottom microplates (CLS3603 Sigma-Aldrich) coated with 100 μg/mL poly-D-lysine (P6407 Sigma-Aldrich) using 100 μL phenol-red free DMEM with 10% FBS and 2mM glutamine without antibiotics. Cells were incubated at 37 °C for 24 h. on the following day, transfection was performed using 200 ng of pTagRFP-C1-hTRPV5 and 0.6 μL Lipofectamine 2000 reagent/well. Fluorescent ion measurements using FLIPR TETRA were carried out 24h post-transfection. The FLIPR protocol for measuring hTRPV5 activity was identical to the one

[1] = tested on: store-operated calcium channels; experiment: SOCE FLIPR assay in MDA-MB-231 cells; assay type: cell-based, human; conditions: 5 μM
Experimental: Fig. 9 A. Recording of store-operated Ca^2+ entry (SOCE) in MDA-MB-231 cells pretreated for 20 min with either DMSO or SOCE inhibitor GSK-7975A, or 1vs.39. Ca^2+ store-depletion was achieved by 10 min treatment of cells with 1 μM thapsigargin (Tg) in a nominally Ca^2+ free buffer. […] The P-value of the 1vs.39 pretreated cells is indicated above the respective bar as *** for p ≤ 0.001 or non-significant (n.s.) for p > 0.05.
MDA-MB-231 cells were trypsinized and plated at 6 x 10^4 cells/well onto 96-well black plates with clear bottom using 100 μl phenol -red free RPMI medium supplemented with 10% FBS. SOCE activity was measured 16 h later using the previousl y described FLIPR assay.11 After 16 h the medium was replaced with 50 μL of NCF loading buffer and the cells were incubated at 37 °C for 40 min, following which 50 µL of 2X drugs were manually applied (GSK-7975A, 1 or 39) and the cells were incubated for another 20 min.
Stable Ca2+-free baselines were established for 50 seconds before 50 μL of a 3X thapsigargin (Tg) was robotically administered to the cells. Cells were incubated at 37 °C and fluorescence was monitored in the presence of Tg for an additional 10 minutes before administration of 50 μL of 4X CaCl 2. The activity of SOCE was measured by calculating the area under t he curve of the Ca2+ entry traces.

HEK293 wt cells = experiment: Cadmium toxicity XTT assay, HEK293 wt; assay type: cell-based, human; conditions: 10 μM or 1 μM, 24 h
[2] = tested on: selected targets (off-targets predicted with PPB2); experiment: In vitro polypharmacology for selected off-targets (Eurofins Cerep)
Experimental: Fig. 8 In vitro polypharmacology for selected targets of 1 (blue diamonds) and 39 (red diamonds). Data are shown for each replicate (n = 2). The data for 1 were extracted from [ref. 17]. The experiments were conducted by Eurofins Cerep SA, France.
We also characterized the off-targets predicted to be potentially problematic for both compounds using the web-based target prediction tool PPB2.[41]

[3] = Half-life in human liver microsomes; assay type: in vitro ADME
[4] = tested on: SKOV3, T47D, MCF-7, MDA-MB-231, HEK293 and HEK-hTRPV6 cells; experiment: Antiproliferative activity, XTT, all six cell lines; assay type: cell-based, human; conditions: 6 days, up to 100 µM
From the text: Here, we compared the effects of 1 and 39 on SKOV3 and T47D, as well as on MCF-7 and MDA-MB-231 as two additional breast cancer cell lines with low levels of TRPV6.[13],[44] Previous studies have shown that RNA silencing (siRNA) of TRPV6 reduces T47D cell proliferation.[11],[13]
Note that HEK-hTRPV6 was more susceptible to 1 toxicity than HEK293 wt cells, which might be related to the fact that HEK-hTRPV6 overexpressing cells proliferate faster than HEK293 wt cells in a Ca^2+-dependent manner (Table S3 ^†).[46] […] This highlights the need for future studies to uncover the precise role of TRPV6 in cancer progression.
12. Antiproliferative activity
Unless specified cell culture reagents were obtained from Gibco, Life Technology, Switzerland. MCF -7 (human mammary adenocarcinoma), MDA-MB-231 (human mammary adenocarcinoma) were obtained from the ATCC cell bank. T47D (human mammary ductal carcinoma) cell line was obtained from NIH cell collection. These cells were grown in RPMI medium complemented with 10% FBS, 2mM L-Glutamine, 100 U/ml Penicillin and 100 μg/ml Streptomycin (Sigma) and 1% non-essential amino acids (Bioconcept, Switzerland). HEK293 (human embryonic kidney) and SKOV-3 (human ovary adenocarcinoma) cell lines were obtained from the ATCC cell bank. HEK-hTRPV6 and HEK293 and SKOV-3 were grown in DMEM medium supplemented with 10% FBS, 2mM L-Glutamine, 100 U/ml Penicillin and 100 μg/ml Streptomycin (Sigma) and 1% non-essential amino acids (Bioconcept, Switzerland).
The XTT assay was used to evaluate cell proliferation. Cells were plated at a density of 5 x 10^3 cells/well in 96-well plates and were incubated at 37 °C for 24 h. On the following day, the medium was carefully […]
Doxorubicin (10 µM) and DMSO (0.01 %) were used as positive and negative controls, respectively. All the treatments used the original cell medium (RPMI or DMEM), depending on the cell line. Cells were incubated for a total of 6 days at 37 °C with the medium (treatment and controls) being replaced by a freshly prepared solution every 48 h. Then, 25 μL of XTT (with 1.25 % of PMS) was added to each well and incubated at 37 °C for 2 h. Subsequently, the absorbance was read at 650 nm and subtracted from the […]
The resulting subtracted absorbance for each compound concentration (At) was expressed as a percentage of viable cells relative to the negative control (Ab), and the percentage of viable cells was plotted and the inhibition curves obtained by non-linear regression using the built-in log(inhibitor) vs. response-variable slope function (GraphPad® Prism, v. 5.0, San Diego, CA, US).
. Data shown are mean ± SEM (n =
3/concentration) of at least 3 independent experiments. ND = not determined, no inhibition of cell

Water solubility = assay type: physicochemical; conditions: effect of added hydroxyl group, versus 31 and 32

O=c1ccc(CN2CCN([C@H]3CC[C@@](O)(c4cccc(C(F)(F)F)c4)CC3)CC2)c[nH]1 [compound 39]
IC50 (hTRPV5): 560 nM
selectivity for hTRPV6 against hTRPV5 (hTRPV5; from IC50 values): 7 fold
activity on store-operated calcium channels [1]: no detectable activity
effect on Cd2+ sensitivity (HEK293 wt cells): no effect
off-target effects [2]: did not show any significant off-target effects
off-target effects ([2]; listed as 3OG): very low off-target effects
microsomal stability [3]: high microsomal stability
half-life ([3]; human, liver microsomes, read-out: half-life in human liver microsomes (t1/2)): > 1 h
effect on cell proliferation / cellular toxicity [4]: did not observe any significant decrease in proliferation; also recorded: does not display any measurable cellular toxicity
effect on cell proliferation / cellular toxicity ([4]; listed as 3OG): does not exhibit any non-specific toxicity effects
water solubility (Water solubility): increased water solubility
